Biological target: Sigma non-opioid intracellular receptor 1 (Cavia porcellus, UniProt Q60492)
Assay: Binding Affinity Assay
Procedure: An appropriate amount of homogenization buffer was added to the prepared membrane, and was dispersed into a suspension using a homogenizer, protein concentration was measured to be 4 mg/ml. 100 micrograms of protein were added to each well of a 96-well plate, with a volume of 90 μl. […] [3H]-(+)-pentazocine (Perkin-Elmer, Cat #NET1056250UC) was added to each well (final concentration of 10 nM). The 96-well plate was incubated in a constant temperature water bath (25° C., 180 minutes). […] After washing, the samples were dried in a 37° C. oven.

Sequence of Sigma non-opioid intracellular receptor 1 (Q60492 whole entry): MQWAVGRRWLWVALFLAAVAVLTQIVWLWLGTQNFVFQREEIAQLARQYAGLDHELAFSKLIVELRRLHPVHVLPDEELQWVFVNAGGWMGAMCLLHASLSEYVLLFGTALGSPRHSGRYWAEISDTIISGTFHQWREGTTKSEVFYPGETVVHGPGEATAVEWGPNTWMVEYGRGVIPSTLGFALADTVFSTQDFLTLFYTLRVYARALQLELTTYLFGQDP

| Ki [nM] | Structure (SMILES) |
| --- | --- |
| 80.3 | Fc1ccc(-c2cc(COCCN3CCOCC3)on2)cc1F [US20240317745, Compound 1] |
| 308 | OC1CCN(Cc2cc(-c3ccc(F)c(F)c3)no2)CC1 [US20240317745, Compound 37] |
| 39.6 | OC1CCN(CCOCc2cc(-c3ccc(Cl)c(Cl)c3)no2)CC1 [US20240317745, Compound 65] |
| 84.4 | Clc1ccc(-c2noc(COCCN3CCOCC3)c2Br)cc1Cl [US20240317745, Compound 74] |
